Data: US5334582A, “Pharmaceutical bacteriocin compositions and methods for using the same” (Applied Microbiology, Inc., priority 1993, dated 1994)
Like-named read-outs stand apart in the source and are kept apart here.

Columns and labels:
Escherichia coli = details: for % survival at 1 min: nisin 100 μg/ml and/or EDTA 1.0 mM
Method: The rapid activities of various chelator-enhanced nisin formulations were evaluated in acid vehicles in a germicidal suspension assay.
E. coli cells from an overnight Trypticase soy nutrient agar (TSA) were resuspended to a density measured as an absorbance of 1.0 at 600 nm in sterile ddH2 O. The reaction of the cells with each of the bactericidal test formulations analyzed is started by addition of 30 μl of cells to 970 μl of test formulation. The reaction mixture was incubated at 37° C. for at least 1 minute and then centrifuged in a microfuge for 1 minute. The cell pellet was washed by resuspension in 1 ml of neutralization buffer. (The neutralization buffer: 50 mM Tris-HCl, pH 7.0, 5 mM MgSO4, 20 mM CaCl2, 0.1 M NaCl and 0.1% gelatin was prepared by first making Tris buffer and adjusting the pH. The salts and gelatin were then added and the solution stirred with heat until the solution was clear. The solution was then autoclaved for 20 min. The neutralization buffer was used without dilution.) The cells were centrifuged in a microfuge for 1 minute and resuspended in 1 ml of neutralization buffer. The viable count was determined by spreading 100 μl of bacterial suspension and serial dilutions thereof in neutralization buffer on nutrient agar and scoring surviving colonies after 24 h at 37° C. Percent survival relative to untreated controls was calculated from the scored values.

E. coli strain ATCC8739 = experiment: nisin-citrate agar growth inhibition assay; assay type: cell-based; details: Trypticase Soy Agar
Method: However, nisin in the presence of citrate is active against gram negative bacteria. […] This nisin-citrate agar assay has much more general applicability. The assay provides a method for screening potential agents other than citrate in combination with nisin for their potential properties as enhancers of nisin's inherent bactericidal activity.
E. coli is resuspended to an optical density of 1.0 at A600. A 100 μl sample of the bacterial suspension is spread uniformly on Trypticase Soy nutrient agar (TSA) supplemented with various concentrations of citrate (eg. 0.1%, 0.3%, 1.0%, 3.0%) and incubated for 1 hour at 37° C. A nisin stock solution and serial dilutions thereof in 0.1% bovine serum albumin (BSA), are prepared and 5 μl are taken from each and deposited onto the growing bacterial lawn. The TSA plates are then incubated for 24 hours at 37° C. After 24 hours at 37° C., E. coli grown on TSA supplemented with citrate form a confluent lawn. […] The effectiveness of nisin against the gram negative bacteria can be assessed from determining the minimum amount of nisin required to produce a clear zone of growth inhibition. As the concentration of citrate in the nutrient agar is increased, less nisin is required to inhibit the growth of E. coli, as is illustrated by the data shown in Table 6.

[1] = 0.1% w/v acetate pH 3.5, 37° C.
[2] = 0.1% w/v citrate pH 3.5, 37° C.
[3] = 0.1% w/v lactate pH 3.5, 37° C.
[4] = 0.3% w/v acetate pH 3.5, 37° C.
[5] = 0.3% w/v citrate pH 3.5, 37° C.
[6] = 0.3% w/v lactate pH 3.5, 37° C.
[7] = 1.0% w/v acetate pH 3.5, 37° C.
[8] = 1.0% w/v citrate pH 3.5, 37° C.
[9] = 3.0% w/v citrate pH 3.5, 37° C.
[10] = pH 2.0, 20 mM Na acetate buffer, 37° C., initial count 4 × 10^7 cfu/ml

Compound	% survival at 1 min (Escherichia coli; [1]) [%]	% survival at 1 min (Escherichia coli; [2]) [%]	% survival at 1 min (Escherichia coli; [3]) [%]	% survival at 1 min (Escherichia coli; [4]) [%]	% survival at 1 min (Escherichia coli; [5]) [%]	% survival at 1 min (Escherichia coli; [6]) [%]	% survival at 1 min (Escherichia coli; [7]) [%]	% survival at 1 min (Escherichia coli; [8]) [%]	% survival at 1 min (Escherichia coli; 1.0% w/v lactate pH 3.5, 37° C.) [%]	% survival at 1 min (Escherichia coli; [9]) [%]	% survival at 1 min (Escherichia coli; [10]) [%]	% survival at 1 min (Escherichia coli; 3.0% w/v acetate pH 3.5, 37° C.) [%]	activity towards gram negative bacteria (Escherichia coli; nisin by itself or in the presence of citrate)	% survival at 1 min (Escherichia coli; pH 3.5, 20 mM Na acetate buffer, 37° C.) [%]	% survival at 1 min (Escherichia coli; pH 4.0, 20 mM Na acetate buffer, 37° C.) [%]	Nisin NIC (nominal inhibitory concentration minimally required to prevent growth) (E. coli strain ATCC8739; 0% citrate)	Nisin NIC (nominal inhibitory concentration minimally required to prevent growth) (E. coli strain ATCC8739; 0.1% citrate) [µg/mL]	Nisin NIC (nominal inhibitory concentration minimally required to prevent growth) (E. coli strain ATCC8739; 0.3% citrate) [µg/mL]	Nisin NIC (nominal inhibitory concentration minimally required to prevent growth) (E. coli strain ATCC8739; 1.0% citrate) [µg/mL]	Nisin NIC (nominal inhibitory concentration minimally required to prevent growth) (E. coli strain ATCC8739; 3.0% citrate) [µg/mL]
O=C(O)CN(CCN(CC(=O)O)CC(=O)O)CC(=O)O [EDTA]	40	100	5.1	25	50.0	0.46	25	47.9	0.91	100	0.07	–	–	–	–	–	–	–	–	–
nisin	9.6	0.003	4.4	70	0.0007	0.24	100	0.56	–	14.6	0.28	100	ineffective	100	100	3,333 μg/ml	370	123	13.7	0.06
